Assays:
[1] = Inhibition of ABCG2 (unknown origin) expressed in MDCK2 cells co-expressing BCRP (unknown origin) assessed as potentiation of SN-38-induced cytotoxicity measured after 72 hrs by MTT assay
[2] = biological target: ATP-dependent translocase ABCB1 (Homo sapiens, UniProt P08183); experiment: Inhibition of ABCB1 in human A2780/ADR cells assessed as potentiation of daunorubicin-induced cytotoxicity measured after 72 hrs by MTT assay
[3] = Inhibition of ABCB1 in human A2780/ADR cells assessed as potentiation of daunorubicin-induced cytotoxicity measured after 72 hrs by MTT assay
[4] = biological target: T1, Broad substrate specificity ATP-binding cassette transporter ABCG2 (Homo sapiens, UniProt Q9UNQ0); experiment: Inhibition of ABCG2 (unknown origin) expressed in MDCK2 cells co-expressing BCRP (unknown origin) assessed as potentiation of SN-38-induced cytotoxicity measured after 72 hrs by MTT assay
T1 sequence (Q9UNQ0 whole entry): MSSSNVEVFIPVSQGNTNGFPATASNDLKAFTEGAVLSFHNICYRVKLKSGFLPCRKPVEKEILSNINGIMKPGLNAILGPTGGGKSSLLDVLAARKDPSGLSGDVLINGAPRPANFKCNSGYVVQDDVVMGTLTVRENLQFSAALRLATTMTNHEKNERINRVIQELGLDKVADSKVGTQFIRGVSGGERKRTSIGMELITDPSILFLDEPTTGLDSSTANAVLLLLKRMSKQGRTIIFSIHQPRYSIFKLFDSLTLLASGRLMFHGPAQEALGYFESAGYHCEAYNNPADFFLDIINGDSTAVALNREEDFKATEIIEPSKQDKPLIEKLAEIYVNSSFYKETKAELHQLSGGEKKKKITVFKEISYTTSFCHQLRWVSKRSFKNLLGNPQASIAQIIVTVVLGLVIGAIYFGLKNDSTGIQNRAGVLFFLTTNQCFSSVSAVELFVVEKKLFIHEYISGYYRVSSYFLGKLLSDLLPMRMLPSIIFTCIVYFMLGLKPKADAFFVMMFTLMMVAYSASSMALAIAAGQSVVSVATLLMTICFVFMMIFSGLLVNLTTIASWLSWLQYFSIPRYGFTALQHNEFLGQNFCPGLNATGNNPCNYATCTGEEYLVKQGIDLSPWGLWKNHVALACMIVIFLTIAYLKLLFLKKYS

Sequence of ATP-dependent translocase ABCB1 (P08183 whole entry): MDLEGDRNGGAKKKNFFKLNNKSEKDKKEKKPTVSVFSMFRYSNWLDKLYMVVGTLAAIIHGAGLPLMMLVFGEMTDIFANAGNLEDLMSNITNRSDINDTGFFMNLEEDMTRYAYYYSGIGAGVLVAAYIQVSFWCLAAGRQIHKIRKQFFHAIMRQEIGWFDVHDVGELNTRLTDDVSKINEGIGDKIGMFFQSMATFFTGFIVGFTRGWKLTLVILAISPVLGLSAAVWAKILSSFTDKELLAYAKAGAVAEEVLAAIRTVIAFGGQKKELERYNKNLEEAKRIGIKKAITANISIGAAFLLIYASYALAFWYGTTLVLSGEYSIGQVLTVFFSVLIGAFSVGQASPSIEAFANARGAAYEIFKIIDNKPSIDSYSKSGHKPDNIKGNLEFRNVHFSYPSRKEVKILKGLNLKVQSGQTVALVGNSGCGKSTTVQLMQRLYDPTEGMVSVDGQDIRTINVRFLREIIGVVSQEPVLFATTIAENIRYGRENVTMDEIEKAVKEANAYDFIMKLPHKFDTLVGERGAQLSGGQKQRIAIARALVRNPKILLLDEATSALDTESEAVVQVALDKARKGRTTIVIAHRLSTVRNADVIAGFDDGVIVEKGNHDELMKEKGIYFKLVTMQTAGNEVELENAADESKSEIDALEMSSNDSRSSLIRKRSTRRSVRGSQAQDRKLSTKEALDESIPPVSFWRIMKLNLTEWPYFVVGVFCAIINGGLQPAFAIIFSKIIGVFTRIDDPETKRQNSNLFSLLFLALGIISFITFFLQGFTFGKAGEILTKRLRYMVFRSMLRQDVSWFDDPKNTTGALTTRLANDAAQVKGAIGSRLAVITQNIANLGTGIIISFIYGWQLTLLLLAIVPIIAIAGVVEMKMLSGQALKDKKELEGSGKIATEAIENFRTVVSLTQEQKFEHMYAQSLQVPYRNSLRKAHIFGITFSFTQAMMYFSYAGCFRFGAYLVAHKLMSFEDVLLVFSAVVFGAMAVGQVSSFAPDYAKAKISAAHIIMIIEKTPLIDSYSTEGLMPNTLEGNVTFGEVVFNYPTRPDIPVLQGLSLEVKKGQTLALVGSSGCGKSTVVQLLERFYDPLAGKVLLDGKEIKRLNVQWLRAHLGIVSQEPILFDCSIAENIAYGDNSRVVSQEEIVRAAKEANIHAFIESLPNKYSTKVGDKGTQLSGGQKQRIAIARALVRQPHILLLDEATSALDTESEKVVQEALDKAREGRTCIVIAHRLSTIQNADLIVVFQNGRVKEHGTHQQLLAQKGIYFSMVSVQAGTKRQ

COc1cc(/C=C/C(=O)c2ccc(OCC(=O)NCc3ccc4c(c3)OCO4)cc2)cc(OC)c1OC
EC50 [1]: 989 nM

COc1ccc(-c2c(OCC(=O)Nc3cccc4ccccc34)oc3ccccc3c2=O)cc1
EC50 [1]: 793 nM

COC(=O)c1ccc2c(c1)NC(=O)/C2=C(\Nc1ccc(N(C)C(=O)CN2CCN(C)CC2)cc1)c1ccccc1 [BIBF-1120]
EC50 [2]: 276 nM

COc1ccc(NC(=O)COc2ccc(C(=O)/C=C/c3c(F)cccc3F)cc2)cc1OC
EC50 [1]: 448 nM

Cc1ccc(-c2c(OCC(=O)Nc3cccc4ccccc34)oc3ccccc3c2=O)cc1
EC50 [3]: 5010 nM

COc1ccc(-c2c(OCC(=O)Nc3cccc4ccccc34)oc3ccccc3c2=O)cc1OC
EC50 [3]: 3120 nM | EC50 [1]: 446 nM

COc1cc2ncnc(Nc3ccc(O)c(Br)c3)c2cc1OC [WHI-P154]
EC50 [3]: 3080 nM | EC50 [4]: 189 nM

CN1CCN(c2cccc(Nc3nc4c(-c5ccc(S(C)(=O)=O)cc5)cccn4n3)c2)CC1
EC50 [2]: 202 nM

COc1cccc(/C=C/C(=O)c2ccc(OCC(=O)Nc3ccc(OC)c(OC)c3)cc2)c1
EC50 [1]: 1390 nM

O=C(COc1c(-c2ccccc2Cl)oc2ccccc2c1=O)Nc1ccc2c(c1)COC2=O
EC50 [3]: 9900 nM | EC50 [1]: 1220 nM

Cc1cc(Nc2ncc(Cl)c(Nc3ccccc3S(=O)(=O)C(C)C)n2)c(OC(C)C)cc1C1CCNCC1
EC50 [2]: 89 nM

COc1cc(C(=O)/C=C/c2cc(OC)c(OC)c(OC)c2)ccc1O
EC50 [1]: 512 nM

CC(=O)Nc1cccc(-n2c(=O)n(C3CC3)c(=O)c3c(Nc4ccc(I)cc4F)n(C)c(=O)c(C)c32)c1 [CHEBI:75998]
EC50 [2]: 247 nM

C[C@]1(O)C[C@@H](c2nc(-c3ccc4ccc(-c5ccccc5)nc4c3)c3c(N)nccn32)C1 [(1s,3s)-3-(8-amino-1-(2-phenylquinolin-7-yl)imidazo[1,5-a]pyrazin-3-yl)-1-methylcyclobutanol]
EC50 [3]: 2090 nM | EC50 [4]: 104 nM

COc1ccc(NC(=O)COc2ccc(C(=O)/C=C/c3cc(OC)c(OC)c(OC)c3)cc2)cc1OC
EC50 [1]: 107 nM

O=C(COc1cccc(C(=O)/C=C/c2ccccc2)c1)Nc1ccc2c(c1)COC2=O
EC50 [1]: 1170 nM

CCCOc1ccc(/C=C/C(=O)c2ccc(O)cc2)cc1
EC50 [1]: 1250 nM

Cc1ccc(-n2nc(C(C)(C)C)cc2NC(=O)Nc2ccc(OCCN3CCOCC3)c3ccccc23)cc1 [1-[5-tert-butyl-2-(p-tolyl)pyrazol-3-yl]-3-[4-(2-morpholinoethoxy)-1-naphthyl]urea]
EC50 [2]: 524 nM
